Assay results: PMC8966664 (Frontiers in Pharmacology, 2022)

What was measured:
rat CYP3A1 = assay: Enzymatic kinetic study with nifedipine in rat liver microsomes; type: biochemical
Method: The mixture was pre-incubated at 37°C for 15 min. […] The supernatant was filtered through a 0.22 µm membrane filter before the LC-MS/MS analysis.
Data are expressed as mean ± SD. The Student’s t test was used for the comparison between two groups. The one-way ANOVA followed with a post hoc Bonferroni’s multiple comparison test was used for the comparison among multiple groups. Toxicokinetic parameters were calculated by noncompartmental methods using WinNonlin version 4.0 (Pharsight, Mountain View, CA, United States). The enzyme kinetic parameters were estimated from the best fit line using least-squares linear regression of the inverse substrate concentration versus the inverse velocity (Lineweaver-Burk plots), and the mean values were used to calculate the Km and Vmax. […] The statistical significance was set as ^* p < 0.05, ^** p < 0.01 or ^*** p < 0.001.

RTS-induced liver injury = assay: Serum ALT, hepatic MDA and GSH in RTS-induced liver injury; type: in vivo, Sprague Dawley rats; conditions: rats
Method: EX and GA were dissolved in distilled water at 37°C for oral administration with the dosage of EX and GA as 500 mg/kg and 50 mg/kg. […] RTS was given following the last dose of distilled water/GA/EX. Detailed dosage regimens are described in Supplementary Figure S2. All rats were sacrificed at 48 h after the last dosing. Serum and liver samples were collected and stored at −80°C until use.
The serum alanine transaminase (ALT) level was measured by a kit obtained from Sigma-Aldrich Chemical Co. (St. Louis, MO, United States). The total bilirubin level was measured by the QuantiChromTM Bilirubin Assay kit according to the manufacturer’s instructions (BioAssay Systems, Hayward, CA, United States). Hepatic malondialdehyde (MDA) level was measured using a kit obtained from Nanjing Jiancheng Bioengineering Institute (Nanjing, China). Total GSH content in the liver was measured following a standard spectrophotometric method using Ellaman’s reagent.

[1] = substance alone (EX/GA single and multiple administrations; RTS single dose), 48 h

**Q.** For CC1(C)[C@@H](O)CC[C@]2(C)[C@H]3C(=O)C=C4[C@@H]5C[C@@](C)(C(=O)O)CC[C@]5(C)CC[C@@]4(C)[C@]3(C)CC[C@@H]12 [GA, 18β-glycyrrhetinic acid], which “Lineweaver-Burk Slope” value (rat CYP3A1; GA 10 µM) is on record?
**A.** 1.424±0.040

**Q.** And the “Lineweaver-Burk Y-intercept when X=0.0” value (rat CYP3A1; GA 10 µM)?
**A.** 0.174±0.017

**Q.** And the “Vmax of nifedipine metabolism” value (rat CYP3A1; GA 10 µM)?
**A.** 6.326±0.079 nmol/min/mg protein

**Q.** What about the “Lineweaver-Burk Slope” value (rat CYP3A1; GA 25 µM) of the same compound?
**A.** 2.671±0.041

**Q.** What about the “Lineweaver-Burk Y-intercept when X=0.0” value (rat CYP3A1; GA 25 µM) of the same compound?
**A.** 0.144±0.018

**Q.** What about the “Vmax of nifedipine metabolism” value (rat CYP3A1; GA 25 µM) of the same compound?
**A.** 6.586±0.083 nmol/min/mg protein

**Q.** What about the “Lineweaver-Burk Slope” value (rat CYP3A1; GA 50 µM) of the same compound?
**A.** 4.916±0.064

**Q.** What about the “Lineweaver-Burk Y-intercept when X=0.0” value (rat CYP3A1; GA 50 µM) of the same compound?
**A.** 0.137±0.028

**Q.** What about the “Vmax of nifedipine metabolism” value (rat CYP3A1; GA 50 µM) of the same compound?
**A.** 6.473±0.146 nmol/min/mg protein

**Q.** What about the “RTS-induced hepatic GSH elevation” value (RTS-induced liver injury; EX or GA treatment + RTS, especially multiple dosage regimens) of the same compound?
**A.** attenuated

**Q.** What about the “RTS-induced hepatic MDA elevation” value (RTS-induced liver injury; multiple doses + RTS 40 mg/kg) of the same compound?
**A.** significantly attenuated

**Q.** What about the “RTS-induced serum ALT elevation” value (RTS-induced liver injury; multiple doses + RTS 40 mg/kg) of the same compound?
**A.** significantly attenuated

**Q.** And the “RTS-induced hepatic MDA elevation” value (RTS-induced liver injury; single dose + RTS 40 mg/kg)?
**A.** significantly reduced

**Q.** And the “RTS-induced serum ALT elevation” value (RTS-induced liver injury; single dose + RTS 40 mg/kg)?
**A.** significantly reduced

**Q.** And the “hepatic MDA level compared with vehicle” value (RTS-induced liver injury; [1])?
**A.** unchanged

**Q.** And the “serum ALT level compared with vehicle” value (RTS-induced liver injury; [1])?
**A.** unchanged
